The target in one experiment is T1, recombinant MPO (Homo sapiens, UniProt P05164).
T1 construct: made in house
T1 sequence (P05164 49-745): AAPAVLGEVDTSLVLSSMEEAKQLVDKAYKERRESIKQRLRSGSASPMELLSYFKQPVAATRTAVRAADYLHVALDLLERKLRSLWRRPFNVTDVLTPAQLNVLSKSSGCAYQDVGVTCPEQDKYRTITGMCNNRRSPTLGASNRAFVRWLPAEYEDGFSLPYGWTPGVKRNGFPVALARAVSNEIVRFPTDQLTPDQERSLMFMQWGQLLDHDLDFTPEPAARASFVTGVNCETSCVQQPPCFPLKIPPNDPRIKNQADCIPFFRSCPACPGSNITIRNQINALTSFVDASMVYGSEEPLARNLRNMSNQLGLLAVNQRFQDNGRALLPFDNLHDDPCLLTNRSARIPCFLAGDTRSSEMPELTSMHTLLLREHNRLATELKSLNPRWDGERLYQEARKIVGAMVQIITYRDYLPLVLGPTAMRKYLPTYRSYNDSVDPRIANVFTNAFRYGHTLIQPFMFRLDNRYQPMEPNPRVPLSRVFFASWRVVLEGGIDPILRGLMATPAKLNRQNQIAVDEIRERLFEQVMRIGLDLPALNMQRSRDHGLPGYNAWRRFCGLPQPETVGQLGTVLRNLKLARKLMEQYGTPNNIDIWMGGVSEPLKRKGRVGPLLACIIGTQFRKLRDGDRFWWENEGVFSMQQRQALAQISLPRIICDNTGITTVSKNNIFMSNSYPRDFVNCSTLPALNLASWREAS
The experiment is described as follows: Myeloperoxidase inhibition (MPO) assay, taurine chloramine production by the MPO/H2O2/Cl- system. The class given is biochemical. The following applies: for inhibition properties against myeloperoxidase enzyme: compared with the corresponding compound wherein the fluor atom is at position 5 on the indole ring. As to the method:
Myeloperoxidase inhibition (MPO) assay procedure
The assay was based on the production of taurine chloramine produced by the MPO/H2O2/Cl- system in the presence of a selected inhibitor at defined concentration. The reaction mixture contained the following reagents in a final volume of 200 µL: pH 7.4 phosphate buffer (10 mM PO4^3-/300 mM NaCl), taurine (15 mM), the compound to be tested (up to 20 µM), and the fixed amount of the recombinant MPO (6.6 µL of MPO batch solution diluted 2.5 times, 40 nM). When necessary, the volume was adjusted with water. This mixture was incubated at 37 °C and the reaction initiated with 10.0 µL of H2O2 (100 µM). After 5 min, the reaction was stopped by the addition of 10 µL of catalase (8 U/µL).
(§1) Recombinant MPO was prepared as previously described. Each batch solution is characterized by its protein concentration (mg/mL), its activity (U/mL), and its specific activity (U/mg). The chlorination activity was determined according to Hewson and Hager. […] The different steps were carried out in the dark, and the protein concentration was measured by the Lowry assay for both MPO and LDL.

Experiment [1] concerns the target T2, LDL oxidation carried out by MPO (Homo sapiens, UniProt P05164).
T2 construct: made in house
T2 sequence (P05164 49-745): T1 sequence (P05164 49-745)
Briefly: Inhibition of LDL oxidation by MPO, ELISA with Mab AG9. The class given is biochemical. How it is done: Low-density lipoproteins oxidation inhibition
Preparation of the Recombinant Enzyme and of LDL
as §1
Inhibition of LDL Oxidation
LDL oxidation was carried out at 37 °C in a final volume of 500 µL. The reaction mixture contained the following reagents at the final concentrations indicated between brackets: pH 7.2, PBS buffer, MPO (1 µg/mL), LDL (1000 µg/mL), 2 µL 1 N HCl (4 mM), one of the drugs at different concentrations, and H2O2 (100 µM). The reaction was stopped after 5 min by cooling the tubes in ice. The assay was performed as described by Moguilevsky et al. in a NUNC maxisorp plate (VWR, Zaventem, Belgium): 200 ng/well of LDL was coated overnight at 4 °C in a sodium bicarbonate pH 9.8 buffer (100 µL) Afterward, the plate was washed with TBS 80 buffer and then saturated during 1 h at 37 °C with the PBS buffer containing 1% BSA (150 µL/well). […] After incubation for 1 h at 37 °C, the plate was washed four times with the TBS 80 buffer and a 3000 times diluted solution of IgG antimouse alkaline phosphatase (Promega, Leiden, The Netherlands) in the same buffer was added (100 µL/well). The wells were washed again four times and a revelation solution (150 µL/well) containing 5 mg of para-nitrophenyl phosphate in 5 mL of diethanolamine buffer was added for 30 min at room temperature. The reaction was stopped with 60 µL/well of 3 N NaOH solution. […] Results were expressed as IC50.

Experiment [2] deals with T3, human 5-HT transporter (hSERT) (Homo sapiens, UniProt P31645).
T3 construct: expressed in transfected cells; host or cells: HEK-293 MSR cells (Invitrogen), plasmid pcDNA3.1-hSERT
The experiment is described as follows: 5-HT reuptake inhibition, [3H]5-HT uptake in transfected HEK-293 MSR cells. The class given is cell-based. The conditions noted are these: serotonin reuptake inhibition. As to the method:
Assesment of 5-HT reuptake inhibition.
Inhibition assessment of 5-HT reuptake was performed as follows. The mammalian expression plasmid pcDNA3.1 containing human 5-HT transporter (hSERT) cDNA has been described previously. HEK-293 MSR cells (Invitrogen) were cultured as monolayers in Dulbecco's modified Eagle's medium (BioWhitaker) supplemented with 10% fetal calf serum (Invitrogen), 100 units/mL penicillin, 100 µg/mL streptomycin (BioWhitaker) and 6 µg/mL Geneticin (Invitrogen) at 95% humidity, 5% p(CO2) and 37°C. Cells were detached from the culture flasks by Versene (Invitrogen) and trypsin/EDTA (BioWhitaker) treatment for subculturing or seeding into white TC-microtiter plates (Nunc). Transfection and measurement of [^3H]5-HT (PerkinElmer Life Sciences) uptake was performed as described by Larsen et al. (2004) except that HEK-293 MSR cells (Invitrogen) were used instead of COS-1 cells.

Where [3] appears, read: inhibition of myeloperoxidase enzyme, Table 1, compounds of the invention, read-out: IC50.
The mark [4] stands for this setting: inhibition of LDL oxidation, Table 2, read-out: IC50.
Setting [5] is: Table 3, 3-amidoindole analogues, read-out: MPO IC50.
Where [6] appears, read: Table 3, 3-amidoindole analogues, oxidation of LDL, read-out: Mox LDL IC50.

This is an account of results in patent EP2682119A1, “Aromatic N-heterocycle derivatives for use as medicine” (Université Libre de Bruxelles, priority 2012, dated 2014).

pIC50, pKi: −log10 of the molar value. Where a name gives a salt, the structure may show the parent alone. Read-outs that look alike come from different tables or passages of the source.

T3 sequence (P31645 whole entry): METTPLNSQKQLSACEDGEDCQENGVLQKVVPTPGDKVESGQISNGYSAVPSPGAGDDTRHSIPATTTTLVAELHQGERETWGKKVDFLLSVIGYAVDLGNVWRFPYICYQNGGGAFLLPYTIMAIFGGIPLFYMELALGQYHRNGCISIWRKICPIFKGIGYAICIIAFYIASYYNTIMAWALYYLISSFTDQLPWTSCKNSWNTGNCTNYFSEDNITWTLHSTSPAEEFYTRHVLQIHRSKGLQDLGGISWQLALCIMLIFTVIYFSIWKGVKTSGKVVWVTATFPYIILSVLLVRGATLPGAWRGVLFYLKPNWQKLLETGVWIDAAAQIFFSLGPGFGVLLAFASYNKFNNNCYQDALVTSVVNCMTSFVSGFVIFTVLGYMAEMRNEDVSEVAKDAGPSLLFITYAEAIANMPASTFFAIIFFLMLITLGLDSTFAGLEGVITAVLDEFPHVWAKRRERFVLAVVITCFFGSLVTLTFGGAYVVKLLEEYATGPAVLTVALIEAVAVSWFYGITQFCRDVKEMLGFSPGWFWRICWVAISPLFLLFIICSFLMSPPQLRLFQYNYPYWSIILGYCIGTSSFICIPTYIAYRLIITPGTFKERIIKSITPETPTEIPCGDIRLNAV

On to `NCCc1c[nH]c2c(F)cccc12.O=C(O)C(=O)O` [Compound 26, 3-(2-Aminoethyl)-7-fluoro-1H-indole oxalate], for which the “inhibition properties against myeloperoxidase enzyme” value on recombinant MPO is recorded as “enhanced inhibition properties”.

Take `NCCCc1c[nH]c2c(F)cccc12.O=C(O)C(=O)O` [Compound 27, 3-(3-Aminopropyl)-7-fluoro-1H-indole oxalate]: the “inhibition properties against myeloperoxidase enzyme” value on recombinant MPO is “enhanced inhibition properties”.

With `NCCCCc1c[nH]c2c(F)cccc12` [Compound 30, 3-(4-Aminobutyl)-7-fluoro-1H-indole oxalate], the negative-log IC50 (pIC50) at recombinant MPO (setting [3]) is 8.22; in experiment [1] (setting [4]), 7.68.

With `NCCSCCc1c[nH]c2ccc(F)cc12` [Compound 32, 3-(2-(2-Aminoethylthio)ethyl)-5-fluoro-1H-indole oxalate], the pIC50 was 8.40 at recombinant MPO (setting [3]) and 8.10 in experiment [1] (setting [4]).

For the compound `NCCSCCCc1c[nH]c2ccc(F)cc12` [Compound 33, 3-(3-(2-Aminoethylthio)propyl)-5-fluoro-1H-indole oxalate], the pIC50 in experiment [1] (setting [4]) was 7.68.

For the compound `N#CSCCCc1c[nH]c2ccc(F)cc12` [Compound 34, 5-Fluoro-3-(3-thiocyanatopropyl) 1H-indole], the negative logarithm of the IC50 (pIC50) at recombinant MPO (setting [3]) is 8.30; in experiment [1] (setting [4]), 7.64. Also, in experiment [2], the negative logarithm of the Ki (pKi) was 6.67.

On to `CCN(CCc1c[nH]c2ccc(F)cc12)S(C)(=O)=O` [Compound 35, 5-Fluoro-3-(2-(N-ethylmethanesulfonamido)ethyl)-1H-indole], for which the values for the pIC50 (on recombinant MPO (setting [3]); in experiment [1] (setting [4])) were 7.85 and 7.57, respectively. For the same compound, the pKi in experiment [2] was 6.76.

Turning to `CCN(CCCc1c[nH]c2ccc(F)cc12)S(C)(=O)=O` [Compound 36, 5-Fluoro-3-(3-(N-ethylmethanesulfonamido)propyl)-1H-indole], the negative logarithm of the IC50 (pIC50) in experiment [1] (setting [4]) was 7.57.

Regarding `NCCSCCc1c[nH]c2c(F)cccc12` [Compound 43, 3-(2-(2-Aminoethylthio)ethyl)-7-fluoro-1H-indole oxalate], the pIC50 on recombinant MPO (setting [3]) was 8.52; in experiment [1] (setting [4]) it was 8.22. This compound also showed a pKi in experiment [2] of 7.60.

For `ONCCCc1c[nH]c2ccc(F)cc12` [Compound 45, 3-(3-N-Hydroxylaminopropyl)-5-fluoro-1H-indole], the pIC50 on recombinant MPO (setting [3]) is 7.96; in experiment [1] (setting [4]), 7.68. The pKi in experiment [2] was 7.70.

On to `NC(=O)CCCc1c[nH]c2c(F)cccc12` [Compound 54, 3-(4-(butylamido))-7-fluoro-1H-indole], for which the pIC50 is 7.59 on recombinant MPO (setting [5]), 7.62 in experiment [1] (setting [6]) and 7.62 in experiment [1] (setting [4]).

Take `NC(=O)CCCc1c[nH]c2ccc(F)cc12` [Compound 56, 3-(4-(Butylamido))-5-fluoro-1H-indole]: the pIC50 (on recombinant MPO (setting [5]); on recombinant MPO (setting [3]); in experiment [1] (setting [6]); in experiment [1] (setting [4])) was 7.74 throughout. Besides, in experiment [2], the pKi is 6.20.

As to `NC(=O)CCCCc1c[nH]c2c(F)cccc12` [Compound 57, 3-(5-(pentylamido)) -7-fluoro-1H-indole], the pIC50 was 7.41 on recombinant MPO (setting [5]) and 7.37 in experiment [1] (setting [6]).

For the compound `NC(=O)CCCCc1c[nH]c2ccc(F)cc12` [Compound 58, 3-(5-(pentylamido)) -5-fluoro-1H-indole], the pIC50 on recombinant MPO (setting [5]) was 7.46; in experiment [1] (setting [6]) it was 7.36.

As for `CNC(=O)CCCc1c[nH]c2ccc(F)cc12` [Compound 59, 3-(4-(N-methyl, butylamido))-5-fluoro-1H-indole], the negative logarithm of the IC50 (pIC50) at recombinant MPO (setting [5]) was 7.40; in experiment [1] (setting [6]) it was 7.02.
